Key:
human LXRbeta = target: T1, human LXRbeta (Homo sapiens, UniProt P55055); experiment: Transactivation (reporter gene) assay, GAL4-LXRbeta LBD luciferase in U2/OS cells; format: cell-based; conditions: U2/OS osteosarcoma cells, 48 h; T0901317 at 1 μM as 100% control
T1 construct: LXRbeta (amino acid 216-461); expressed in transfected cells; host or cells: U2/OS osteosarcoma cells, electroporated with pSGGAL-LXRbeta
T1 sequence (P55055 215-460 limits assumed): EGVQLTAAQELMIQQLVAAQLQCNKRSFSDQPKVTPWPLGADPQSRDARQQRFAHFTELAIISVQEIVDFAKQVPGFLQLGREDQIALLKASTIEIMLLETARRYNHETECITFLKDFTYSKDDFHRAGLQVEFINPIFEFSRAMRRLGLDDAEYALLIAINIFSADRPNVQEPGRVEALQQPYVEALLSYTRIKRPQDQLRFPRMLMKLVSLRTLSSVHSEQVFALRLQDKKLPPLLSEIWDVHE
Method: (§1) Expression vectors were prepared by inserting the ligand binding domain cDNA (complementary DNA) of human LXRalpha (amino acid 205447) and LXRbeta (amino acid 216-461) in frame with, 3′ to the yeast GAL4 transcription factor DNA binding domain and the nuclear localization signal from the T-antigen of Polyoma Virus in the eucaryotic expression vector pSG5 (Stratagene). The resulting expression vectors pSGGAL-LXRalpha and pSGGAL-LXRbeta were used in cotransfection experiments together with the pGL3 luciferase reporter plasmid containing a minirnal SV40 promoter and five copies of the UAS GAL4 recognition site. 2.5 μg pSGGAL-LXRalpha or beta were mixed with 25 μg pGL3 5×UAS and 22.5 μg pBluscript in 0.95 mL ice cold PBS containing approx. 4-9 milj. U2/OS osteosarcoma cells. After a five minute incubation on ice the cell/DNA mixture was electroporated in 0.4 cm cuvettes at 960 μF, 230 V using a BioRad electroporator and diluted to 0.32 milj cells/mL in complete DMEM (Dulbecco's Modified Eagle Medium) medium (Gibco 31966-021). Cells from at least two electroporations were pooled in order to avoid variations between different electroportations. […] Luciferase activity was measured using the “Luminescence 384 protocol” in the Wallac Victor reader after 15 min. incubation at room temperature. […]

human LXRalpha = target: T2, human LXRalpha (Homo sapiens, UniProt Q13133); experiment: Transactivation (reporter gene) assay, GAL4-LXRalpha LBD luciferase in U2/OS cells; format: cell-based; conditions: U2/OS osteosarcoma cells, 48 h; T0901317 at 1 μM as 100% control
T2 construct: human LXRalpha (amino acid 205-447); expressed in transfected cells; host or cells: U2/OS osteosarcoma cells, electroporated with pSGGAL-LXRalpha
T2 sequence (Q13133 205-447): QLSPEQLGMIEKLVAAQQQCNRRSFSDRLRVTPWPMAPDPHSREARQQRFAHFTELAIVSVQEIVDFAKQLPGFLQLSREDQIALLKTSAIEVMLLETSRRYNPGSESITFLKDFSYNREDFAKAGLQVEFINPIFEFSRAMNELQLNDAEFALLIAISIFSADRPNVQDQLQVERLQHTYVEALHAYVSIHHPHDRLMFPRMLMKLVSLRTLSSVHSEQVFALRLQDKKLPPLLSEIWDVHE
Method: as §1

EC50 (human LXRbeta): 320 nM
EC50 (human LXRalpha): 280 nM
SMILES: Nc1ccc(CN2C(=O)C(Nc3ccc(OC(F)F)cc3)=C(c3ccccc3)C2=S)cn1 [Example 1, 1-[(6-aminopyridin-3-yl)methyl]-3-{[4-(difluoromethoxy)phenyl]amino}-4-phenyl-5-thioxo-1,5-dihydro-2H-pyrrol-2-one]
